Test results: US20070203183A1, “Diaryl piperidines as CB1 modulators” (Schering Corporation, priority 2006, published 2007)
Where two headings read alike, the source gives them in different places.

Target: T1, cannabinoid CB1 (Homo sapiens, UniProt P21554)
T1 construct: purchased
Test: Competition binding assay for cannabinoid CB1 affinity (3H-CP55,940 displacement, membranes)
Protocol: Method for Evaluating Cannabinoid CB1 and CB2 Affinity
Non-specific binding was defined in the presence of 10 μM CP55,940. For saturation studies, concentrations of ^3H-CP55,940 ranging from 0.1-5 nM were incubated with membranes in the presence and absence of 10 μM CP55,940. Assays were terminated after incubation for 1½ hours by rapid filtration onto 0.3% polyethylenamine treated GF/C filterplates using a BRANDEL cell harvester. The plates were dried and MICROSCINT scintillation cocktail was added, after which the bound radioactivity was quantified using a TOPCOUNT scintillation counter.
The dissociation constant (Kd) of ^3H-CP55,940 at the CB1 and CB2 receptor were determined by plotting specific binding at each concentration of radioligand, and analysis by non-linear regression. For competition studies, the concentration of each drug that inhibited 50 percent of ^3H-CP55,940 binding (IC50) was determined by non-linear regression analysis of the radioligand displacement curves.

[1] = competition with 0.5 nM 3H-CP55,940, Ki by Cheng-Prusoff, approximate values, receptor subtype not given, read-out: Ki values

T1 sequence (P21554 whole entry): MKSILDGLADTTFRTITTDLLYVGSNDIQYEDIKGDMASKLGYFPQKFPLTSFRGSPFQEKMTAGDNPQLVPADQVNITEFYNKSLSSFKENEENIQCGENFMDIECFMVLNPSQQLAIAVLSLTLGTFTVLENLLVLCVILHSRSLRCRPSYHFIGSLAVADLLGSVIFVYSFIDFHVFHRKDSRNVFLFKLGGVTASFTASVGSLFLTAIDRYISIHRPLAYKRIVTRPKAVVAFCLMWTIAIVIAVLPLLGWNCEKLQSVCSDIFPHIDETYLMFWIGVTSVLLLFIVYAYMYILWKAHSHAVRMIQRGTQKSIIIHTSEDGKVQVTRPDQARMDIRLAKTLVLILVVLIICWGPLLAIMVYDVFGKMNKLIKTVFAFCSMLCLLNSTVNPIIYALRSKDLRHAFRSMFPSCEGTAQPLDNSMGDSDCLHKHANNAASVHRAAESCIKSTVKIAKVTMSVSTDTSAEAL

Row | Ki [1] [nM] | Compound | Ki [nM]
1 | ~2 | O=S(=O)(NC[C@@H]1CC[C@@H](c2ccc(Cl)cc2Cl)N(c2ccc(Cl)cc2)C1)c1cc(F)ccc1F [Example 112] | 
2 | ~9 | O=S(=O)(NC[C@@H]1CC[C@@H](c2ccc(Cl)cc2Cl)N(c2ccc(Cl)cc2)C1)c1ccccc1 [Example 86] | 
3 |  | N#Cc1ccc(C(=O)NC[C@@H]2CC[C@@H](c3ccc(Cl)cc3Cl)N(c3ccc(Cl)cc3)C2)cc1 [Example 91] | ~4
4 | ~2 | O=S(=O)(NC[C@@H]1CC[C@@H](c2ccc(Cl)cc2Cl)N(c2ccc(Cl)cc2)C1)c1cccc(Cl)c1 [Example 120] | 
